Measurements from US7220832B2, “Dermacentor variabilis GABA-gated chloride channels” (priority 2000, dated 2007).

Tested on: D. variabilis GABA-gated chloride channel
Experiment: Two-microelectrode voltage clamp recording of Xenopus laevis oocytes injected with Dv8, Dv9 or Dv5 mRNA
Format: cell-based, Dermacentor variabilis
Conditions: for current in response to application of compound: 1 mM, oocytes expressing Dv8 and Dv9 (SEQ. ID. NOs. 1 and 2), holding potential 0 or -30 mV; for block of the GABA-activated current: current activated by 1 mM GABA
Procedure: Functional expression of a D. variabilis GABA-gated chloride channel was observed using MRNA encoding for the polypeptide of SEQ. ID. NOs. 1, 2, and 3 injected into Xenopus laevis oocytes. MRNA encoding for SEQ. ID. NOs. 1, 2, and 3 were obtained using the Dv8, Dv9, and Dv5 clones as described in Example 1.
Xenopus laevis oocytes were prepared and injected using standard methods previously described. (Arena et al., Mol. Pharmaco. 40:368-374, 1991; and Arena et al., Mol. Brain Res. 15:339-348, 1992.) Adult female Xenopus laevis were anesthetized with 0.17% tricaine methanesulfonate and the ovaries were surgically removed and placed in a solution consisting of (mM): NaCl 82.5, KCl 2, MgCl2 1, HEPES 5, NaPyruvate 2.5, Penicillin G. 100,000 units/L, Streptomycin Sulfate 1000 mg/L, pH 7.5 (Mod. OR-2).
Ovarian lobes were broken open, rinsed several times in Mod. OR-2, and incubated in 0.2% collagenase (Sigma, Type1) in Mod. OR-2 at room temperature with gentle shaking. After 1 hour the collagenase solution was renewed and the oocytes were incubated for an additional 30-90 minutes until approximately 50% of the oocytes were released from the ovaries. Stage V and VI oocytes were selected and placed in media containing (mM): NaCl 96, KCl 2, MgCl2 1, CaCl2 1.8, HEPES 5, NaPyruvate 2.5, theophylline 0.5, gentamicin […], pH 7.5 (ND-96) for 16-24 hours before injection. Oocytes were injected with 50 nl of Dv8, Dv9, or Dv5 RNA at a concentration of 0.2 mg/ml. Oocytes were incubated at 18° C. for 1-6 days in ND-96 before recording.
Recordings were made at room temperature in modified ND-96 consisting of (mM): NaCl 96, MgCl2 1, CaCl2 0.1, BaCl2 3.5, HEPES 5, pH 7.5. Oocytes were voltage clamped using a Dagan CA1 two microelectrode amplifier (Dagan Corporation, Minneapolis, Minn.) interfaced to a Macintosh 7100/80 computer. The current passing electrode was filled with 0.7 M KCl, 1.7 M KCitrate, and the voltage recording electrode was filled with 1 M KCl. Throughout the experiment oocytes were superfused with modified ND-96 (control solution) or with ND-96 containing potential channel activators and blockers at a rate of approximately 3 ml/min. Data were acquired at 100 Hz and filtered at 33.3 Hz using Pulse software from HEKA Elektronik (Lambrecht, Germany). All recordings were performed from a holding potential of either 0 or −30 mV.
During a 60s application of GABA approximately 50% of the current desensitized and the remaining current deactivated rapidly upon wash-out of GABA. Repeated applications of 1 mM GABA elicited similar responses. […] Oocytes injected with Dv5 mRNA responded similarly to oocytes injected with Dv8 and Dv9 mRNA (data not shown).

Question: With NCCCC(=O)O [GABA, γ-Aminobutric acid] as the compound, how does the “current in response to application of compound” value read?
Answer: rapidly activating current

Question: And the “fraction of the current desensitized during application” value (60s application of 1 mM GABA, oocytes expressing Dv8 and Dv9)?
Answer: approximately 50%

Question: For N#Cc1nn(-c2c(Cl)cc(C(F)(F)F)cc2Cl)c(N)c1[S+]([O-])C(F)(F)F (centres unmarked) [fipronil], which “block of the GABA-activated current” value (5 μM, FIG. 5, channel of SEQ. ID. NO. 2 (Dv9)) is on record?
Answer: blocked completely

Question: N[C@@H](CCC(=O)O)C(=O)O [glutamate] was tested. Which “current in response to application of compound” value did it give?
Answer: did not activate a current

Question: For C=C(C)[C@@H]1[C@H]2OC(=O)[C@@H]1[C@]1(O)C[C@H]3O[C@]34C(=O)O[C@H]2[C@]14C [picrotoxinin], which “block of the GABA-activated current” value (10 μM, data not shown) is on record?
Answer: blocked completely
